Measurements reported in patent US20030216358A1, “Method for enhancing bone mineral density gain” (priority 2003, published 2003).

Tested on: postmenopausal women
Assay: Clinical data, summary in words: BMD and bone turnover markers after alendronate followed by raloxifene
Type: in vivo, human
Details: alendronate for one year followed sequentially by raloxifene alone
Protocol: A phase 3, multicenter, double-blind, placebo-controlled, randomized clinical trial was conducted. Objectives of the trial included comparing the effects of 12 months treatment with raloxifene HCl (60 mg/day), alendronate (10 mg/day), or the combination of the two agents together versus placebo on BMD at the lumbar spine and at the hip and also metabolic markers of bone turnover. Additional objectives included comparing the effects of raloxifene 60 mg/day versus placebo during a second year of study on the offset of action of raloxifene or alendronate, as assessed by these same efficacy parameters.
Three hundred thirty-one (331) subjects were randomly assigned to one of four initial treatment groups: placebo, raloxifene 60 mg/day, alendronate 10 mg/day or raloxifene plus alendronate together. After one year of therapy all subjects were re-randomized to receive either placebo or raloxifene 60 mg/day for an additional year of study. All subjects received approximately 500 mg of elemental calcium plus 400-600 I.U. of vitamin D/day throughout the entire study. […] In addition subjects had BMD and biochemical markers of bone turnover (including serum osteocalcin) repeated at six monthly intervals.

SMILES: O=C(c1ccc(OCCN2CCCCC2)cc1)c1c(-c2ccc(O)cc2)sc2cc(O)ccc12 [raloxifene, 6-hydroxy-2-(4-hydroxyphenyl)-3-[4-(2-piperidinoethoxy)benzoyl]-benzo[b]thiophene]
- bone turnover markers: either return towards normal or remain suppressed but do not further decrease
- BMD (compared to alendronate followed by placebo): further increases of BMD
